The target of the assay is T1, human poly-histidine tagged KSP motor domain (KSP(367H)) (Homo sapiens, UniProt P52732).
T1 construct: were used to amplify the motor domain and the neck linker region; made in house; host or cells: E. coli BL21 (DE3), vector pRSETa
T1 sequence (P52732 18-359 limits assumed): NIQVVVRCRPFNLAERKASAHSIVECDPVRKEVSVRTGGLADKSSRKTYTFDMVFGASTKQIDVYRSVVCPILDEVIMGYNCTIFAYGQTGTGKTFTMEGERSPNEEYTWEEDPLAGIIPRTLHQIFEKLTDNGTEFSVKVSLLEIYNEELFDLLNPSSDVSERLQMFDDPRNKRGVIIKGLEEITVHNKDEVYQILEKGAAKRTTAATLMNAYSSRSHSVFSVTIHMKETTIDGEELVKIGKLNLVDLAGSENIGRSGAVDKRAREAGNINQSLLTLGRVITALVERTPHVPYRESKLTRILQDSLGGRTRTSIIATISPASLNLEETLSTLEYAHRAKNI
Briefly: Kinesin ATPase In Vitro Assay. The class given is biochemical. How it is done:
I. Kinesin ATPase In Vitro Assay
The N-terminal primer 5′-[…] (SEQ. ID. NO.: 1) and the C-terminal primer 5′-[…] […] (SEQ. ID. NO.: 2)
were used to amplify the motor domain and the neck linker region. The PCR products were digested with AseI and XhoI, ligated into the NdeI/XhoI digestion product of pRSETa (Invitrogen) and transformed into E. coli BL21 (DE3).
Cells were grown at 37° C. to an OD600 of 0.5. After cooling the culture to room temperature expression of KSP was induced with 100 μM IPTG and incubation was continued overnight. Cells were pelleted by centrifugation and washed once with ice-cold PBS. Pellets were flash-frozen and stored −80° C.
Protein Purification: Cell pellets were thawed on ice and resuspended in lysis buffer (50 mM K-HEPES, pH 8.0, 250 mM KCl, 0.1% Tween, 10 mM imidazole, 0.5 mM Mg-ATP, 1 mM PMSF, 2 mM benzimidine, 1× complete protease inhibitor cocktail (Roche)). Cell suspensions were incubated with 1 mg/ml lysozyme and 5 mM β-mercaptoethanol on ice for 10 minutes, followed by sonication (3×30 sec). All subsequent procedures were performed at 4° C. Lysates were centrifuged at 40,000×g for 40 minutes. Supernatants were diluted and loaded onto an SP Sepharose column (Pharmacia, 5 ml cartridge) in buffer A (50 mM K-HEPES, pH 6.8, 1 mM MgCl2, 1 mM EGTA, 10 μM Mg-ATP, 1 mM DTT) and eluted with a 0 to 750 mM KCl gradient in buffer A. Fractions containing KSP were pooled and incubated with Ni-NTA resin (Qiagen) for one hour. The resin was washed three times with buffer B (Lysis buffer minus PMSF and protease inhibitor cocktail), followed by three 15-minute incubations and washes with buffer B. Finally, the resin was incubated and washed for 15 minutes three times with buffer C (same as buffer B except for pH 6.0) and poured into a column. KSP was eluted with elution buffer (identical to buffer B except for 150 mM KCl and 250 mM imidazole). KSP-containing fractions were pooled, made 10% in sucrose, and stored at −80° C.
Microtubules are prepared from tubulin isolated from bovine brain. Purified tubulin (>97% MAP-free) at 1 mg/ml is polymerized at 37° C. in the presence of 10 μM paclitaxel, 1 mM DTT, 1 mM GTP in BRB80 buffer (80 mM K-PIPES, 1 mM EGTA, 1 mM MgCl2 at pH 6.8). The resulting microtubules are separated from non-polymerized tubulin by ultracentrifugation and removal of the supernatant. The pellet, containing the microtubules, is gently resuspended in 10 μM paclitaxel, 1 mM DTT, 50 μg/ml ampicillin, and 5 μg/ml chloramphenicol in BRB80.
The kinesin motor domain is incubated with microtubules, 1 mM ATP (1:1 MgCl2: Na-ATP), and compound at 23° C. in buffer containing 80 mM K-HEPES (pH 7.0), […], 1 mM DTT, 1 mM MgCl2, and 50 mM KCl. The reaction is terminated by a 2-10 fold dilution with a final buffer composition of 80 mM HEPES and 50 mM EDTA. […] The reaction is incubated for 10 minutes at 23° C., and the absorbance of the phospho-molybdate complex is measured at 540 nm.

[1] abbreviates: (3R,4R) enantiomeric form tested, kinesin motor domain with microtubules, 1 mM ATP, 23° C., free phosphate by quinaldine red/ammonium molybdate, read-out: IC50.

The structures appear in SMILES notation. Where two headings read alike, the source gives them in different places.

In the case of `CC(=O)C1=NN2c3cc(F)ccc3OC[C@H]2[C@@]1(CCCN1CCN(C(=O)c2ccco2)CC1)c1ccccc1` [Compound 4-33, 1-((3R,4R)-8-fluoro-3-{3-[4-(2-furoyl)piperazin-1-yl]propyl}-3-phenyl-3a,4-dihydro-3H-pyrazolo[5,1-c][1,4]benzoxazin-2-yl)ethanone], under setting [1], the IC50 is not above 30 µM.
Regarding `CC(=O)C1=NN2c3cc(F)ccc3OC[C@H]2[C@@]1(CCCN1CCN(C(=O)c2ccno2)CC1)c1ccccc1` [Compound 4-34, 1-((3R,4R)-8-fluoro-3-{3-[4-(isoxazol-5-ylcarbonyl)piperazin-1-yl]propyl}-3-phenyl-3a,4-dihydro-3H-pyrazolo[5,1-c][1,4]benzoxazin-2-yl)ethanone], the IC50 under setting [1] is not above 30 µM.
With `CC(=O)C1=NN2c3cc(F)ccc3OC[C@H]2[C@@]1(CCCN1CCN(C(=O)c2cc(C)on2)CC1)c1ccccc1` [Compound 4-35, 1-[(3R,4R)-8-fluoro-3-(3-{4-[(5-methylisoxazol-3-yl)carbonyl]piperazin-1-yl}propyl)-3-phenyl-3a,4-dihydro-3H-pyrazolo[5,1-c][1,4]benzoxazin-2-yl]ethanone], the IC50 under setting [1] is not above 30 µM.
Take `CC(=O)C1=NN2c3cc(F)ccc3OC[C@H]2[C@@]1(CCCN1CCNC(=O)C1)c1ccccc1` [Compound 4-36, 4-{3-[(3R,4R)-2-acetyl-8-fluoro-3-phenyl-3a,4-dihydro-3H-pyrazolo[5,1-c][1,4]benzoxazin-3-yl]propyl}piperazin-2-one]: the half-maximal inhibitory concentration (IC50) under setting [1] is not above 30 µM.
With `CC(=O)C1=NN2c3cc(F)ccc3OC[C@H]2[C@@]1(CCCN1CCN(C)C(=O)C1)c1ccccc1` [Compound 4-37, 4-{3-[(3R,4R)-2-acetyl-8-fluoro-3-phenyl-3a,4-dihydro-3H-pyrazolo[5,1-c][1,4]benzoxazin-3-yl]propyl}-1-methylpiperazin-2-one], under setting [1], the IC50 was not above 30 µM.
As to `CC(=O)C1=NN2c3cc(F)ccc3OC[C@H]2[C@@]1(CCCN1CCC(=O)N(C)CC1)c1ccccc1` [Compound 4-38, 1-{3-[(3R,4R)-2-acetyl-8-fluoro-3-phenyl-3a,4-dihydro-3H-pyrazolo[5,1-c][1,4]benzoxazin-3-yl]propyl}-4-methyl-1,4-diazepan-5-one], the half-inhibitory concentration (IC50) is not above 30 µM.
For the compound `CC(=O)NCCNCCC[C@]1(c2ccccc2)C(C(C)=O)=NN2c3cc(F)ccc3OC[C@H]21` [Compound 4-40, N-[2-({3-[(3R,4R)-2-acetyl-8-fluoro-3-phenyl-3a,4-dihydro-3H-pyrazolo[5,1-c][1,4]benzoxazin-3-yl]propyl}amino)ethyl]acetamide], the concentration for half-maximal inhibition (IC50) under setting [1] was not above 30 µM.
For the compound `CC(=O)C1=NN2c3cc(F)ccc3OC[C@H]2[C@@]1(CCCN1CCN(C(C)=O)CC1)c1ccccc1` [Compound 5-10, 1-{(3R,4R)-3-[3-(4-acetylpiperazin-1-yl)propyl]-8-fluoro-3-phenyl-3a,4-dihydro-3H-pyrazolo[5,1-c][1,4]benzoxazin-2-yl}ethanone], the half-inhibitory concentration (IC50) is not above 30 µM.

The IC50 is the concentration that inhibits the measured activity by half.

The values above are taken from patent US7632833B2, “Mitotic kinesin inhibitors” (Merck & Co., Inc., priority 2004, dated 2009).
